Test results as given in paper PMC9585581, “Developing Photoaffinity Probes for Dopamine Receptor D2 to Determine Targets of Parkinson’s Disease Drugs” (ACS Chemical Neuroscience, 2022).

Columns and labels:
[1] = cited from earlier work
Dopamine receptor D1 = details: stated without reference; cited from earlier work
DRD2 [2] = target: T1, DRD2 (Homo sapiens, UniProt P14416); assay: PRESTO-TANGO β-arrestin recruitment assay (HTLA cells transfected with DRD2-TANGO, luciferase readout); assay type: cell-based; parameters: TEV protease site and fused transcription factor (TANGO module); expressed in transfected cells; host or cells: HTLA cells (gift of G. Barnea), transiently transfected; details: for activity in β-arrestin recruitment (in words): PRESTO-TANGO
T1 sequence (P14416 whole entry, the tested form may be a part): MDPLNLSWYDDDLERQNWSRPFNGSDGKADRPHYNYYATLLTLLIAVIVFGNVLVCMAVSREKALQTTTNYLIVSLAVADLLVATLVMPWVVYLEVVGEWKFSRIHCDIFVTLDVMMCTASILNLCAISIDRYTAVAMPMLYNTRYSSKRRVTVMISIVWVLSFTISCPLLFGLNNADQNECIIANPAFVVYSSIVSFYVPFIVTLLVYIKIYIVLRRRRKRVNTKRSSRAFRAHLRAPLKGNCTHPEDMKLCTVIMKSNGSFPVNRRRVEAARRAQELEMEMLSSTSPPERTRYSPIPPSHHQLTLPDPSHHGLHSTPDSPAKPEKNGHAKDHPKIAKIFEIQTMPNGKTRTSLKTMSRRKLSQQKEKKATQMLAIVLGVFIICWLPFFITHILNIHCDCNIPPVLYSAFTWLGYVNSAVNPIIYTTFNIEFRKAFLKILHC
Excerpt: To characterize the response of the β-arrestin effector pathway to our ligands, we used the Parallel-Receptor-ome Expression and Screening via Transcriptional Output TANGO (PRESTO-TANGO) assay developed in the Roth lab.[44],[45] This assay uses luciferase activity to monitor β-arrestin recruitment by DRD2 (Figure 3a).
Figure 3 β-Arrestin recruitment analysis. (a) PRESTO-TANGO assay schematic: a ligand binds a chimeric DRD2 receptor, which then recruits β-arrestin fused with a TEV protease. The protease cuts a site between the receptor and a fused transcription factor, which then transits to the […] to initiate transcription of a luciferase gene. The luciferase activity is subsequently quantified.
HTLA cells were a gift from the laboratory of G. Barnea and were maintained in DMEM supplemented with 10% FBS, 100 U/mL penicillin, 100 μg/mL streptomycin, 2 μg/mL puromycin, 100 μg/mL hygromycin B, and 100 μg/mL G418 in a humidified atmosphere at 37 °C in 5% CO2. On day 1, cells were plated at a density of 1 × 10^5 cells/cm^2 in a black wall, clear-bottom 96-well plate (Nunc). The following day (day 2), cells were transfected with a 10× solution of 3:1 mixture of DRD2-TANGO/Optifect Transfection Reagent (Thermo) in unsupplemented DMEM. On day 3, 1× drug stimulation solutions were prepared in filter-sterilized unsupplemented DMEM. The transfection media was shaken or aspirated from the wells, and drug stimulation solutions were gently added. On day 4, drug solutions were removed from one well every 10 s (to maintain consistency of incubation time) and 50 μL per well of Bright-Glo solution (Promega) diluted 20-fold in HBSS was added. After incubation for 2 min at room temperature, luminescence was counted with an integration time of 10 s in a Spectramax i3x plate reader (Molecular Devices).

DRD2 [3] = target: T1, DRD2; assay: Western blot analysis of DRD2-probe binding with competition by parent pharmacophore; parameters: expressed in transfected cells; details: probe 100 nm; membrane fraction enriched via Strep Tag II
Excerpt: To observe the photo-cross-linking of DRD2 at the protein level, we analyzed the colocalization of DRD2 by clicking a fluorophore on the probe and performing Western blots. We further observed the competition with the parent pharmacophore of each probe and the ability of a negative control benzophenone (16) to cross-link to DRD2. Our DRD2-expressing cells or unmodified 293T cells (control group) were suspended in media, treated with the probe at a 100 nm concentration, and photo-cross-linked. The cells were then lysed, and the membrane fraction was separated and enriched for DRD2 by pulldown of the Strep Tag II fusion using magnetic beads. After “clicking” a fluorescent tag to the probe, the membrane fraction was run on an SDS-PAGE gel, transferred to a nitrocellulose membrane, and treated with antibodies against DRD2 and Strep Tag II. […] We also observed many nonspecific binding bands for the probe, which is consistent with our other studies, as well as the observations of the field when it relates to photo-cross-linking groups. […] With this confirmation, we proceeded to proteomic analysis of probe interactions.
Figure 6 Photo-cross-linking of probes 5 and 7 to DRD2 visualized with Western blot. Lanes 1–5 correspond to samples with probe 5 at 100 nm, lanes 6–10 correspond to samples treated with probe 7 at 100 nm, and lanes 11–14 correspond to samples treated with negative control probe 16. Lanes: 1, 6, and 11 are the anti-DRD2 antibody channel, lanes 2, 3, 7, 8, and 12 are fluorescence of the Alexa Fluor 555 clicked to the probes 5, 7, or 16, lanes 4, 9, and 13 are the anti-Strep Tag antibody channel, and lanes 5, 10, and 14 are the overlaid channels for the respective probes.
A stable HEK293T-derived cell line-expressing DRD2-Strep Tag II fusion was maintained in DMEM supplemented with 10% FBS, 100 U/mL penicillin, and 100 μg/mL streptomycin in a humidified atmosphere at 37 °C in 5% CO2. Cells were plated at a density of 4 × 10^4 cells/cm^2 in T300 tissue culture flasks (CellTreat) and allowed to grow to an 80% confluency. At confluency, media was removed and cells were washed once with cold HBSS, followed by incubation for 15 min in cold HBSS with 0.53 mM EDTA. Following incubation, cells were scraped off of the bottom of the flask and the cell suspension was transferred to a 15 mL conical tube and then pelleted at 500g for 5 min. The supernatant was removed, and the cell pellet was resuspended in HBSS followed by centrifugation at 500g for 5 min. […] The supernatant of the cell pellet was removed, and the cells were resuspended in probe solution and incubated at room temperature for 2 min followed by centrifugation at 500g for 5 min. The cell pellet was resuspended in either HBSS or 50 μM competitor solution in HBSS and irradiated with a 365 nm UV lamp (8 W, 2 cm distance) for 30 min at room temperature. The cells were then pelleted at 500g for 5 min, and the supernatant was removed. Membrane fractionation was performed following the MEM-PER Membrane Protein Extraction Kit (Thermo). The solubilized membrane fraction was incubated with hydrophilic streptavidin magnetic beads (NEB) for 1 h at room temperature. The flow-through was removed, and the beads were washed twice with PBS. […]

human DRD2, long form = target: T2, human DRD2, long form (Homo sapiens, UniProt P14416); assay: Intracellular Ca2+ mobilization assay (HEK293T stably expressing DRD2, chimeric G-protein Gqi5, calcium dye, confocal microscopy); assay type: cell-based; details: for activity in calcium flux assay (in words): calcium flux bioactivity
T2 construct: expressed in transfected cells; Gqi5 chimera transiently transfected
T2 sequence (P14416 whole entry): as the sequence (P14416 whole entry, the tested form may be a part) above
Method: Intracellular calcium measurement was used to determine G-protein-mediated signaling by DRD2. Because DRD2 is linked to the G-protein subtype Gi, agonist binding inhibits adenyl cyclase activity.[42] To mitigate this effect, we created an HEK293T cell line stably expressing human DRD2, long form, and a chimeric G-protein, Gqi, which alters the DRD2 receptor’s G-protein coupling so that signaling can occur through Gq, resulting in an intracellular calcium flux.[43] The assay is performed by first loading the cell line with a calcium-sensing dye. Binding of the ligand to the receptor results in an influx of calcium to the cytoplasm, which can be characterized in real time by monitoring the increase in dye fluorescence with confocal microscopy.
Figure 2 Intracellular calcium flux assay. HEK293T cell line stably expressing constructs for human DRD2 and a chimeric G-protein is loaded with calcium-sensing dye, […]. After dosing the probe, confocal microscopy is used to determine the calcium flux in the cell by change in dye fluorescence.
A stable HEK293T-derived cell line-expressing DRD2-Strep Tag II fusion was maintained in DMEM supplemented with 10% FBS, 100 U/mL penicillin, and 100 μg/mL streptomycin in a humidified atmosphere at 37 °C in 5% CO2. On day 1, cells were plated at a density of 4 × 10^4 cells/cm^2 in a poly-D-lysine-coated 18-well chambered coverslip (Ibidi). The following day (day 2), cells were transfected with a 10× solution of 3:1 mixture of Gqi5/Optifect Transfection Reagent (Thermo) in unsupplemented DMEM. On day 3, the transfection media was removed and calcium-sensitive dye loading was performed following the protocol of the Fluo-4 Direct Calcium Assay Kit (Invitrogen). 5× drug stimulation solutions were prepared in filter-sterilized HBSS. Once Fluo-4 loading was complete, a time series acquisition at a rate of 1 fps was recorded using a Zeiss LSM 980 with Airyscan 2. Basal fluorescence was recorded for 20 s, followed by the addition of drug solution to a 1× final concentration and acquisition for an additional 40 s. Results in the form of fold fluorescence increase over basal were averaged over 50 cells in ImageJ (NIH), and GraphPad Prism was used for the analysis of data.

CCCN[C@H]1CCc2nc(N)sc2C1 [pramipexole]
patients experiencing adverse drug reactions [1]: ≤ 74% | binding to dopamine receptor D1 (in words) (Dopamine receptor D1): bound poorly | activity in β-arrestin recruitment (in words) (DRD2 [2]): low nanomolar activity

C#CCOc1ccc(C(=O)c2ccc(CN)cc2)cc1 [Compound 16, reference compound]
photo-cross-linking / colocalization with DRD2 band (Western blot) (DRD2 [3]): did not show colocalization with the DRD2 band

C#CCCC1(CCC(=O)N[C@H]2CCc3nc(N)sc3C2)N=N1 [Compound 8, (S)-N-(2-Amino-4,5,6,7-tetrahydrobenzo[d]thiazol-6-yl)-3-(3-(but-3-yn-1-yl)-3H-diazirin-3-yl)propanamide]
activity in calcium flux assay (in words) (human DRD2, long form): greatly diminished activity

C#CCCC1(CCC(=O)N(CCC)CCc2cccc3c2CC(=O)N3)N=N1 [Compound 4, 3-(3-(But-3-yn-1-yl)-3H-diazirin-3-yl)-N-(2-(2-oxoindolin-4-yl)ethyl)-N-propylpropanamide]
activity in calcium flux assay (in words) (human DRD2, long form): greatly diminished activity

CCCN(CCC)CCc1cccc2c1CC(=O)N2 [ropinirole, reference compound]
EC50 (human DRD2, long form; Ca assay, HEK293T stably expressing human DRD2 and chimeric G-protein, Hill slope of 1.0): 124 nM | activity in β-arrestin recruitment (in words) (DRD2 [2]): low nanomolar activity | EC50 (DRD2 [2]; PRESTO-TANGO β-arrestin recruitment, luciferase activity, Hill slope of 1.0): 6.14 nM
